Data from patent US10112955B2, “Isoindoline, azaisoindoline, dihydroindenone and dihydroazaindenone inhibitors of Mnk1 and Mnk2” (eFFECTOR THERAPEUTICS, INC., priority 2015, dated 2018).
Like-named read-outs stand apart in the source and are kept apart here.

Experiments:
MNK1 = MNK1 (Homo sapiens (Human), UniProt Q9BUB5); experiment: MNK Biochemical Enzymatic Assay (ADP-Glo), MNK1
Protocol: (§1) Compounds are screened for MNK inhibition using the ADP-Glo kinase assay kit (Promega, catalogue No. V9101). All kinase reactions are performed in Reaction Buffer E (15 mM HEPES pH7.4, 20 mM NaCl, 1 mM EGTA, 10 mM MgCl2, 0.1 mg/ml BGG, and 0.02% Tween-20). […] Final DMSO concentration in each reaction is 1%.
(§2) Kinase reactions are carried out in 96-well half-area white flat-bottom polystyrene plates in a final volume of 25 μl. MNK1/2 enzymes are pre-incubated with compound and peptide substrate for 5 minutes prior to the addition of ATP. After the addition of ATP, kinase reactions are incubated at room temperature for 40 minutes. Reactions are subsequently stopped by the addition of 25 μl of ADP-Glo Reagent and incubating for an additional 40 minutes. The final luminescent signal used for kinase activity readout is produced by the addition of 45 μl of Kinase Detection Reagent (ADP-Glo kit, Promega) and incubating for 40 minutes.

MNK2 = MNK2 (Homo sapiens (Human), UniProt Q9HBH9); experiment: MNK Biochemical Enzymatic Assay (ADP-Glo), MNK2; conditions: 3 nM recombinant MNK2, 50 μM substrate peptide, 10 μM ATP
Protocol: as §1, §2

Phosphorylated eIF4E = experiment: peIF4E Signaling Cellular Assay (CisBio peIF4E HTRF); type: cell-based; conditions: cells incubated with compound for 2 hrs at 37° C., 12-point curve
Protocol: Phosphorylated eIF4E is assayed using the CisBio peIF4E HTRF® assay kit (CisBio, catalogue No. 64EF4PEG). Cells are plated in 96-well tissue-culture treated plate in appropriate growth medium (90 μL). Compounds (10×) are diluted using 3-fold serial dilutions in cell culture medium and added to cells. Plates are incubated for 2 hrs at 37° C. The cell supernatant is carefully removed either by aspirating supernatant or by flicking the plate. Immediately 50 μL of supplemented lysis buffer (1×) is added and incubated for at least 30 minutes at room temperature under shaking. After homogenization by pipeting up and down, 16 μL of cell lysate is transferred from the 96-well cell-culture plate to a 384-well small volume white plate. 4 μL of premixed antibody solutions (vol/vol) is prepared in the detection buffer and added. The plate is covered with a plate sealer and incubated overnight at room temperature. The fluorescence emissions at two different wavelengths are read (665 nm and 620 nm) on a Wallac Victor2. Emission ratios are converted into percent inhibitions and imported into GraphPad Prism software. […] IC50 values are determined using a nonlinear regression model available in GraphPad Prism 5.

[1] = 10 nM recombinant MNK1, 100 μM substrate peptide, 300 μM ATP, read-out: IC50 Mnk1

Chain of MNK1 (Q9BUB5 whole entry): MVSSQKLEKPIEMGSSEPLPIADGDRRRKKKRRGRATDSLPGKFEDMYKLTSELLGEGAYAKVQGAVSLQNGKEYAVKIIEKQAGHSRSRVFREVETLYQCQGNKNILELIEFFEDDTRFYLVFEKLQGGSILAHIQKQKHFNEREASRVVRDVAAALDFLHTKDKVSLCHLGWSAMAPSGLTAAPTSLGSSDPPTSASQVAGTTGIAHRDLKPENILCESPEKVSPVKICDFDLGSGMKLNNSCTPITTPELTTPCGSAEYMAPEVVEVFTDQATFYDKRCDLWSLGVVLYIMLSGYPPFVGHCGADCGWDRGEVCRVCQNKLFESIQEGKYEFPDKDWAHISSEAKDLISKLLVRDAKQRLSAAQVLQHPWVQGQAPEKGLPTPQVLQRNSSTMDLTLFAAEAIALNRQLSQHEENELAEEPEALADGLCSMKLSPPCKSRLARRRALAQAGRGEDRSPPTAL
Chain of MNK2 (Q9HBH9 whole entry): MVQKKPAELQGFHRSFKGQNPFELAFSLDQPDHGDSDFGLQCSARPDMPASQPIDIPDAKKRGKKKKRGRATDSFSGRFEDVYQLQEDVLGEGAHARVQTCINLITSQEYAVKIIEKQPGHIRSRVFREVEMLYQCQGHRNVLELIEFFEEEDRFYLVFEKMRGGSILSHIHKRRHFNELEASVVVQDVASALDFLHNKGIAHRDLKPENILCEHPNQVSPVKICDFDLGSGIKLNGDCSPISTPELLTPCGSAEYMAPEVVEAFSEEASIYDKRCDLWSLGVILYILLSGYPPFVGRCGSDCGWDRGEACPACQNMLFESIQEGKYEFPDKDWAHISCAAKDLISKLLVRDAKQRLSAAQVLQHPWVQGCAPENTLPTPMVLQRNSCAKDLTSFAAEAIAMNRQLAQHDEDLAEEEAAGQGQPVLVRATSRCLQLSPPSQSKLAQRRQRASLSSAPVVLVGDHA

IC50 (MNK1; [1]) [nM] | IC50 (MNK2) [nM] | IC50 (Phosphorylated eIF4E) [nM] | Structure (SMILES) | IC50 (MNK1) [nM]
10 to 100 |  |  | O=C1NCc2cc(Nc3ncnc4[nH]cnc34)ccc21 [Cpd. No. 1, 5-((9H-purin-6-yl)amino)isoindolin-1-one] | 
10 to 100 |  |  | CN1Cc2cc(Nc3ncnc4[nH]cnc34)ccc2C1=O [Cpd. No. 2, 5-((9H-purin-6-yl)amino)-2-methylisoindolin-1-one] | 
100 to 10000 |  |  | O=C1NCc2cc(Nc3ccncn3)ccc21 [Cpd. No. 3, 5-(pyrimidin-4-ylamino)isoindolin-1-one] | 
100 to 10000 |  |  | O=C1NCc2cc(Nc3cc(Cl)ncn3)ccc21 [Cpd. No. 4, 5-((6-chloropyrimidin-4-yl)amino)isoindolin-1-one] | 
100 to 10000 |  |  | O=C1CCc2cc(Nc3ccncn3)ccc21 [Cpd. No. 5, 5-(pyrimidin-4-ylamino)-2,3-dihydro-1H-inden-1-one] | 
 |  |  | Cn1cc(Nc2cc(Nc3ccc4c(c3)CNC4=O)ncn2)cn1 [Cpd. No. 6, 5-((6-((1-methyl-1H-pyrazol-4-yl)amino)pyrimidin-4-yl)amino)isoindolin-1-one] | 10 to 100
10 to 100 | 10 to 100 | 1000 to 100000 | CC1NC(=O)c2ccc(Nc3ccncn3)cc21 (stereo not drawn) [Cpd. No. 8, 3-methyl-5-(pyrimidin-4-ylamino)isoindolin-1-one] | 
10 to 100 | 10 to 100 | 1000 to 100000 | O=C1NCCc2cc(Nc3ccncn3)ccc21 [Cpd. No. 10, 6-(pyrimidin-4-ylamino)-3,4-dihydroisoquinolin-1(2H)-one] | 
< 10 | 10 to 100 | 1000 to 100000 | CC(=O)Nc1cc(Nc2ccc3c(c2)CNC3=O)ncn1 [Cpd. No. 11, N-(6-((1-oxoisoindolin-5-yl)amino)pyrimidin-4-yl)acetamide] | 
< 10 | < 10 | 50 to 1000 | O=C1NCc2cc(Nc3cc(NC(=O)C4CC4)ncn3)ccc21 [Cpd. No. 12, N-(6-((1-oxoisoindolin-5-yl)amino)pyrimidin-4-yl)cyclopropanecarboxamide] | 
10 to 100 | 10 to 100 | 1000 to 100000 | CC(C)C1NC(=O)c2ccc(Nc3ccncn3)cc21 (stereo not drawn) [Cpd. No. 13, 3-isopropyl-5-(pyrimidin-4-ylamino)isoindolin-1-one] | 
100 to 10000 | 10 to 100 | 1000 to 100000 | CC1(C)NC(=O)c2ccc(Nc3ccncn3)cc21 [Cpd. No. 15, 3,3-dimethyl-5-(pyrimidin-4-ylamino)isoindolin-1-one] | 
 | 100 to 10000 |  | CSc1cc(Nc2ccc3c(c2)C(C)NC3=O)ncn1 (stereo not drawn) [Cpd. No. 16, 3-methyl-5-((6-(methylthio)pyrimidin-4-yl)amino)isoindolin-1-one] | 
< 10 | < 10 | 50 to 1000 | CC1NC(=O)c2ccc(Nc3cc(NC(=O)C4CC4)ncn3)cc21 (stereo not drawn) [Cpd. No. 17, N-(6-((3-methyl-1-oxoisoindolin-5-yl)amino)pyrimidin-4-yl)cyclopropanecarboxamide] | 
 | 100 to 10000 |  | CC1NC(=O)c2ccc(Nc3cc(NC(=O)C(C)(C)C)ncn3)cc21 (stereo not drawn) [Cpd. No. 18, N-(6-((3-methyl-1-oxoisoindolin-5-yl)amino)pyrimidin-4-yl)pivalamide] | 
 | 100 to 10000 |  | CC1c2cc(Nc3ccncn3)ccc2C(=O)N1C (stereo not drawn) [Cpd. No. 20, 2,3-dimethyl-5-(pyrimidin-4-ylamino)isoindolin-1-one] | 
 | 100 to 10000 |  | CC1Cc2cc(Nc3ccncn3)ccc2NC1=O (stereo not drawn) [Cpd. No. 21, 3-methyl-6-(pyrimidin-4-ylamino)-3,4-dihydroquinolin-2(1H)-one] | 
 | 100 to 10000 |  | CNc1cc(Nc2ccc3c(c2)C(C)NC3=O)ccn1 (stereo not drawn) [Cpd. No. 25, 3-methyl-5-((2-(methylamino)pyridin-4-yl)amino) isoindolin-1-one] | 
 | 100 to 10000 |  | Cc1cc(Nc2ccc3c(c2)C(C)NC3=O)ncn1 (stereo not drawn) [Cpd. No. 26, 3-methyl-5-((6-methylpyrimidin-4-yl)amino)isoindolin-1-one] | 

IC50 (MNK1; [1]) [nM] | IC50 (MNK2) [nM] | IC50 (Phosphorylated eIF4E) [nM] | Structure (SMILES) | IC50 (MNK1) [nM]
 | 100 to 10000 |  | O=c1[nH]sc2cc(Nc3ccncn3)ccc12 [Cpd. No. 27, 6-(pyrimidin-4-ylamino)benzo[d]isothiazol-3(2H)-one] | 
 | 100 to 10000 |  | NC1CC(=O)c2ccc(Nc3ccncn3)cc21 (stereo not drawn) [Cpd. No. 28, 3-amino-5-(pyrimidin-4-ylamino)-2,3-dihydro-1H-inden-1-one] | 
 | 100 to 10000 | 1000 to 100000 | O=C1NC2CC2c2cc(Nc3ccncn3)ccc21 (stereo not drawn) [Cpd. No. 29, 6-(pyrimidin-4-ylamino)-1,1a,2,7b-tetrahydro-3H-cyclopropa[c]isoquinolin-3-one] | 
 | 100 to 10000 |  | CC1(N)CC(=O)c2ccc(Nc3ccncn3)cc21 (stereo not drawn) [Cpd. No. 30, 3-amino-3-methyl-5-(pyrimidin-4-ylamino)-2,3-dihydro-1H-inden-1-one] | 
 | 100 to 10000 |  | CC1(N)CNC(=O)c2ccc(Nc3ccncn3)cc21 (stereo not drawn) [Cpd. No. 32, 4-amino-4-methyl-6-(pyrimidin-4-ylamino)-3,4-dihydroisoquinolin-1(2H)-one] | 
< 10 | < 10 |  | O=C1NC(c2ccsc2)c2cc(Nc3ccncn3)ccc21 (stereo not drawn) [Cpd. No. 37, 5-(pyrimidin-4-ylamino)-3-(thiophen-3-yl)isoindolin-1-one] | 
 | 100 to 10000 |  | CC1NC(=O)c2ccc(Nc3ncnc4c3CC(=O)N4)cc21 (stereo not drawn) [Cpd. No. 41, 4-[(3-methyl-1-oxo-isoindolin-5-yl)amino]-5,7-dihydropyrrolo[2,3-d]pyrimidin-6-one] | 
 | < 10 | 50 to 1000 | Cc1cc(Nc2cc(N)ncn2)cc2c1C(=O)NC2(C)C [Cpd. No. 44, 5-((6-aminopyrimidin-4-yl)amino)-3,3,7-trimethylisoindolin-1-one] | 
 | < 10 | < 50 | O=C1NC2(CCCCC2)c2cc(Nc3ccncn3)cc(Cl)c21 [Cpd. No. 46, 4′-chloro-6′-(pyrimidin-4-ylamino)spiro[cyclohexane-1,1′-isoindolin]-3′-one] | 
 | < 10 | 50 to 1000 | Cc1cc(Nc2cc(N)ncn2)cc2c1C(=O)NC21CCCC1 [Cpd. No. 47, 6′-((6-aminopyrimidin-4-yl)amino)-4′-methylspiro[cyclopentane-1,1′-isoindolin]-3′-one] | 
 | < 10 | < 50 | Nc1cc(Nc2cc(Cl)c3c(c2)C2(CCCCC2)NC3=O)ncn1 [Cpd. No. 48, 6′-((6-aminopyrimidin-4-yl)amino)-4′-chlorospiro[cyclohexane-1,1′-isoindolin]-3′-one] | 
 | 10 to 100 | 1000 to 100000 | NC(=O)c1ccc2c(c1)ncn2-c1cc(N)ncn1 [Cpd. No. 49, 1-(6-aminopyrimidin-4-yl)-1H-benzo[d]imidazole-5-carboxamide] | 
 | < 10 | < 50 | CC1(C)NC(=O)c2c(Cl)cc(Nc3ncnc(N)c3Cl)cc21 [Cpd. No. 50, 5-((6-amino-5-chloropyrimidin-4-yl)amino)-7-chloro-3,3-dimethylisoindolin-1-one] | 
 | < 10 | < 50 | Cc1cc(Nc2cc(N)ncn2)cc2c1C(=O)NC21CCCCC1 [Cpd. No. 51, 6′-((6-aminopyrimidin-4-yl)amino)-4′-methylspiro[cyclohexane-1,1′-isoindolin]-3′-one] | 
 | < 10 | 1000 to 100000 | CC1(C)NC(=O)c2ccc(Nc3cc(N)ncn3)c(Cl)c21 [Cpd. No. 52, 5-((6-aminopyrimidin-4-yl)amino)-4-chloro-3,3-dimethylisoindolin-1-one] | 
 | < 10 | 50 to 1000 | CCc1c(N)ncnc1Nc1cc(C)c2c(c1)C1(CCCCC1)NC2=O [Cpd. No. 53, 6′-((6-amino-5-ethylpyrimidin-4-yl)amino)-4′-methylspiro[cyclohexane-1,1′-isoindolin]-3′-one] | 
 | < 10 | < 50 | COc1cncnc1Nc1cc(C)c2c(c1)C1(CCCCC1)NC2=O [Cpd. No. 54, 6′-((5-methoxypyrimidin-4-yl)amino)-4′-methylspiro[cyclohexane-1,1′-isoindolin]-3′-one] | 
 | 10 to 100 | 50 to 1000 | CCc1cncnc1Nc1cc(C)c2c(c1)C1(CCCCC1)NC2=O [Cpd. No. 56, 6′-((5-ethylpyrimidin-4-yl)amino)-4′-methylspiro[cyclohexane-1,1′-isoindolin]-3′-one] | 
 | < 10 | < 50 | Nc1ncnc(Nc2cc(Cl)c3c(c2)C2(CCCCC2)NC3=O)c1Cl [Cpd. No. 59, 6′-((6-amino-5-chloropyrimidin-4-yl)amino)-4′-chlorospiro[cyclohexane-1,1′-isoindolin]-3′-one] | 
